This note sets out measurements from patent US5847076A, “Regulators of the proteasome” (Board of Regents, The University of Texas System, priority 1993, dated 1998).

What all share (format): biochemical, bovine
One assay concerns 20S proteasome. Nature of the assay: Assay for PA700 activity (ATP-dependent activation of proteasome). To be noted: for ability of nucleotide to promote proteasome activation by PA700: in place of ATP.
Assay [1] deals with PA28-inactivating protein. Nature of the assay: Hydrolysis of synthetic peptides and proteins by PA28-inactivating protein. Particulars: 0.05 μg enzyme, 50 μM substrate, 50 mM MES pH 5.2, 30° C.; 1.0 unit = 1.0 nM/min product. As for the experimental part:
(§1) Assay for PA28-inactivating activity. The inactivation of PA28 was assessed by measuring residual PA28 activity after preincubation of purified PA28 with the inactivating protein. The preincubation contained purified bovine red blood cell PA28 (0.2 μg), 100 mM MES buffer, pH 5.2, 2 mM DTT, and inactivating protein or other factors, as described in this example, in a final volume of 15 μl. After preincubation at […] for 10 min., the reaction was stopped by addition of 1.0 ml of a solution containing 50 mM Trios-HCl, pH 8.0, 1 mM DTT, and 50 μM Suc-LeuLeu-Val-Tyr-AMC (or other proteasome substrate). […] The assays consisted of 50 mM MES buffer, pH 5.2, 1 mM DTT, 50 μM substrate, and 50 μl of column fractions in a final volume of 1.0 ml. Reactions were carried out at 30° C. and the release of free MNA (or other reporter group) was monitored directly by fluorescence. 1.0 unit of activity is defined as the increase in product concentration of 1.0 nM/min.

Assay [2] concerns PA28-inactivating protein. Nature of the assay: Effect of protease inhibitors on peptidase activity (Z-Leu-Arg-MNA hydrolysis) of PA28-inactivating protein. As for the experimental part: as §1
For assay [3], the system named is PA28-inactivating protein. Nature of the assay: Effect of protease inhibitors on PA28-inactivating activity. As to the method:
as §1

The next assay relates to PA28. Nature of the assay: Assay for PA28-inactivating activity (residual PA28 activity after preincubation with peptidase). As for the experimental part: as §1
Where [4] appears, read: inhibitor 2 μM, preincubated 10 min at 30° C., Z-Leu-Arg-MNA.
The mark [5] stands for this setting: inhibitor 1 mM, preincubated 10 min at 30° C.
[6] abbreviates: inhibitor 1 mM, preincubated 10 min at 30° C., Z-Leu-Arg-MNA.

Where two headings read alike, the source gives them in different places. Numbered stars: 1 amine (or outer) side, 2 acyl side, 3 side chain; on linkers, the order of the positions; unused ones are H or OH. Peptide text beside a SMILES is read from it. CO = O=C([*:1])[*:2]

Protocol for 20S proteasome: Assay for PA700 activity. PA700 activity was assayed by measuring the increase in proteasome hydrolysis of the synthetic peptide Suc-Leu-Leu-Val-Tyr-AMC after preincubation of the two components in the presence of ATP. The standard preincubation solution consisted of 45 mM Tris-HCl, pH 7.5, 5 mM DTT, 60 μM ATP, 500 μM MgCl2, 0.3 μg purified proteasome, PA700 as indicated in specific experiments, and any other component as specified, in a final volume of 50 μl. This solution was preincubated at 37° C. for 45 min. The preincubation was ended by the addition of 1.0 ml of a solution containing 50 mM Tris-HCl, pH 8.0, 1 mM DTT, and 50 μM Suc-Leu-Leu-Val-Tyr-AMC. The rate of hydrolysis of the substrate was determined directly by fluorescence as described previously. Routine control assays were conducted in parallel and consisted of the complete procedure but without PA700. […] PA700 activity is defined as the increase in proteasome activity between the two conditions.

Consider `Nc1ncnc2c1ncn2[C@@H]1O[C@H](COP(=O)(O)OP(=O)(O)OP(=O)(O)O)[C@@H](O)[C@H]1O` [ATP], for which the “ATP concentration for maximal proteasome activation by PA700” value with 20S proteasome is given as “approximately 60 μM”. Take `COc1cc(NC(=O)[C@H](CCCNC(=N)N)NC(=O)[C@H](CC(C)C)NC(=O)[C@@H](NC(=O)OCc2ccccc2)C(C)C)cc2ccccc12` [Z--Val--Leu--Arg--MNA, Z-Val-Leu-Arg-MNA]: in assay [1], the “hydrolysis by PA28-inactivating protein” value stood at 28 UNITS/μg.

As for `O=C(CNC(=O)OCc1ccccc1)NCC(=O)N[C@@H](Cc1ccccc1)C(=O)Nc1ccc2ccccc2c1` [Z--Gly--Gly--Phe--βNA] (HELM PEPTIDE1{[O=C(OCc1ccccc1)[*:2]].G.G.F.[c1ccc2cc(N[*:1])ccc2c1]}$$$$V2.0), in assay [1], the “hydrolysis by PA28-inactivating protein” value worked out at 0 UNITS/μg.

In the case of `Cc1ccc(S(=O)(=O)N[C@@H](CCCCN)C(=O)CCl)cc1` [TLCK], the “Peptidase Activity (% Inhibition)” value in assay [2] (10 min, 50 µM) turned out to be 88 % Inhibition. `Nc1ncnc2c1ncn2[C@@H]1O[C@H](CO)[C@@H](O)[C@H]1O` [adenosine]: the “ability of nucleotide to promote proteasome activation by PA700” value (shortened to “ability of nucleotide”) with 20S proteasome is on record as “Neither ADP, AMP, adenosine, nor PPi promoted proteasome activation”.

As for `CC(C)[C@H](NC(=O)[C@H](CCCNC(=N)N)NC(=O)N[C@@H](Cc1ccccc1)C(=O)O)C(=O)N[C@H](C=O)CCCNC(=N)N` [Antipain] ({Phe-CO}-Arg-Val-Arg-aldehyde), the “PA28-Inactivating Activity (% Inhibition)” value in assay [3] (inhibitor 2 μM, preincubated 10 min at 30° C.) is given as 90 % Inhibition. Besides, in assay [2], the “effect on the purified PA28-inactivating protein (PA28-inactivating activity and Z-Leu-Arg-MNA hydrolysis), in words” value (“effect … in words” for short) was “inhibited the PA28-inactivating protein at concentrations in the μM range”. In assay [2] (setting [4]), the “Peptidase Activity (% Inhibition)” value is listed as 88 % Inhibition. On to `COc1cc(NC(=O)[C@H](CCCCN)NC(=O)[C@H](CC(C)C)NC(=O)[C@H](CC(C)C)NC(=O)OCc2ccccc2)cc2ccccc12` [Z--Leu--Leu--Lys--MNA], for which the “hydrolysis by PA28-inactivating protein” value in assay [1] amounted to 19 UNITS/μg. Consider `C[C@H](NC(=O)[C@H](Cc1ccccc1)NC(=O)OCc1ccccc1)C(=O)C=[N+]=[N-]` [Z--Phe--Ala--CHN2], for which the “Peptidase Activity (% Inhibition)” value in assay [2] (inhibitor 15 μM, preincubated 10 min at 30° C., Z-Leu-Arg-MNA) was found to be 85 % Inhibition. For the molecule `Cc1ccc(S(=O)(=O)N[C@@H](Cc2ccccc2)C(=O)CCl)cc1` [TPCK], in assay [3] (inhibitor 50 μM, preincubated 10 min at 30° C.), the “PA28-Inactivating Activity (% Inhibition)” value was 0 % Inhibition. Further, the “Peptidase Activity (% Inhibition)” value in assay [2] (inhibitor 50 μM, preincubated 10 min at 30° C., Z-Leu-Arg-MNA) amounted to 0 % Inhibition. Take `Cc1cc(=O)oc2cc(NC(=O)[C@H](Cc3ccc(O)cc3)NC(=O)CCC(=O)O)ccc12` [Suc--Tyr--AMC]: the “hydrolysis by PA28-inactivating protein” value in assay [1] is listed as 0 UNITS/μg. Same read-out and setting: for `COc1cc(NC(=O)[C@H](Cc2ccc(O)cc2)NC(=O)[C@H](CO)NC(=O)OCc2ccccc2)cc2ccccc12` [Z--Ser--Tyr--MNA] the value was 0 UNITS/μg. Consider trypsin, for which the “effect of peptidase or protease on PA28 activity” value (“effect of peptidase or protease” below) in the assay on PA28 is given as “rapidly inactivated PA28”. As to `O=C(O)CI` [Iodoacetate], the “effect on PA28-inactivating activity of bovine liver extract” value in assay [3] was “inhibited”. For the same molecule, the “PA28-Inactivating Activity (% Inhibition)” value in assay [3] (10 min, 100 µM) is on record as 93 % Inhibition. In addition, the “effect … in words” value in assay [2] is “inhibited each activity”. Further, the “Peptidase Activity (% Inhibition)” value in assay [2] (10 min, 100 µM) turned out to be 83 % Inhibition. With `COc1cc(NC(=O)[C@H](CCCNC(=N)N)NC(=O)[C@@H]2CCCN2C(=O)CNC(=O)OCc2ccccc2)cc2ccccc12` [Z--Gly--Pro--Arg--MNA], the “hydrolysis by PA28-inactivating protein” value in assay [1] is 13 UNITS/μg. Turning to `COc1cc(NC(=O)[C@H](Cc2ccccc2)NC(=O)[C@H](CC(C)C)NC(=O)[C@H](Cc2ccccc2)NC(=O)CCC(=O)O)cc2ccccc12` [Suc--Phe--Leu--Phe--MNA], the “hydrolysis by PA28-inactivating protein” value in assay [1] stood at 0 UNITS/μg. Same read-out and setting: the value for `COc1cc(NC(=O)[C@H](CCCNC(=N)N)NC(=O)[C@H](CC(C)C)NC(=O)OCc2ccccc2)cc2ccccc12` [Z--Leu--Arg--MNA, Z-Leu-Arg-MNA] was 98 UNITS/μg. On the same count and under the same terms, for `COc1cc(NC(=O)[C@H](CCCNC(=N)N)NC(=O)OCc2ccccc2)cc2ccccc12` [Z--Arg--MNA] the value was 0 UNITS/μg.

As to Chymostatin, the “effect … in words” value in assay [2] is “inhibited the PA28-inactivating protein at concentrations in the μM range”. The “Peptidase Activity (% Inhibition)” value in assay [2] (inhibitor 5 μM, preincubated 10 min at 30° C., Z-Leu-Arg-MNA) is on record as 83 % Inhibition. On to `CC(=O)N[C@@H](CC(C)C)C(=O)N[C@@H](CC(C)C)C(=O)N[C@H](C=O)CCCNC(=N)N` [Leupeptin], for which the “PA28-Inactivating Activity (% Inhibition)” value in assay [3] (inhibitor 1 μM, preincubated 10 min at 30° C.) amounted to 100 % Inhibition. In addition, the “effect on PA28-inactivating activity of bovine liver extract” value in assay [3] (preliminary characterization, crude liver extract) was “inhibited”. Also, the “effect … in words” value in assay [2] is reported as “inhibited the PA28-inactivating protein at concentrations in the μM range”. Further, the “Peptidase Activity (% Inhibition)” value in assay [2] (inhibitor 1 μM, preincubated 10 min at 30° C., Z-Leu-Arg-MNA) stood at 100 % Inhibition.

On to `O=P(O)(O)OP(=O)(O)O` [PPi], for which the “ability of nucleotide” value in the assay on 20S proteasome is listed as “Neither ADP, AMP, adenosine, nor PPi promoted proteasome activation”. In the case of `NCCc1ccc(S(=O)(=O)F)cc1` [Aminoethylbenzenesulfonylfluoride, aminoethylbenzenesulfonylfluoride], the “PA28-Inactivating Activity (% Inhibition)” value in assay [3] (setting [5]) worked out at 0 % Inhibition. Also, the “effect … in words” value in assay [2] is “had no effect”. For the same molecule, in assay [2] (setting [6]), the “Peptidase Activity (% Inhibition)” value came out at 0 % Inhibition.

For `O=c1oc(Cl)c(Cl)c2ccccc12` [3,4-Dichloroisocoumarin, 3,4-dichloroisocoumarin], the “PA28-Inactivating Activity (% Inhibition)” value in assay [3] (setting [5]) is reported as 0 % Inhibition. Also, in assay [2], the “effect … in words” value was “had no effect”. Also, in assay [2] (setting [6]), the “Peptidase Activity (% Inhibition)” value turned out to be 0 % Inhibition. Take `Nc1ccn([C@@H]2O[C@H](COP(=O)(O)OP(=O)(O)OP(=O)(O)O)[C@@H](O)[C@H]2O)c(=O)n1` [CTP]: the “concentration required for proteasome activation by PA700 relative to ATP” value with 20S proteasome (higher than ATP) is 100 fold. Further, the “ability of nucleotide” value in the assay on 20S proteasome is on record as “could also activate the proteasome”. In the case of `Nc1ncnc2c1ncn2[C@@H]1O[C@H](COP(=O)(O)OP(=O)(O)O)[C@@H](O)[C@H]1O` [ADP], the “ability of nucleotide” value in the assay on 20S proteasome is listed as “Neither ADP, AMP, adenosine, nor PPi promoted proteasome activation”. For the molecule `CC(C)C[C@H](NC(=O)[C@@H](O)[C@H](N)Cc1ccccc1)C(=O)O` [Bestatin], the “Peptidase Activity (% Inhibition)” value in assay [2] (setting [4]) is 19 % Inhibition.

Regarding `Nc1ncnc2c1ncn2[C@@H]1O[C@H](COP(=O)(O)O)[C@@H](O)[C@H]1O` [AMP], in the assay on 20S proteasome, the “ability of nucleotide” value is “Neither ADP, AMP, adenosine, nor PPi promoted proteasome activation”.

B1: Carboxypeptidase Y: Carboxypeptidase Y from yeast (Boehringer, 1111914) (protein, UniProt P00729 112-532, looked up)
Carboxypeptidase Y: KIKDPKILGIDPNVTQYTGYLDVEDEDKHFFFWTFESRNDPAKDPVILWLNGGPGCSSLTGLFFELGPSSIGPDLKPIGNPYSWNSNATVIFLDQPVNVGFSYSGSSGVSNTVAAGKDVYNFLELFFDQFPEYVNKGQDFHIAGESYAGHYIPVFASEILSHKDRNFNLTSVLIGNGLTDPLTQYNYYEPMACGEGGEPSVLPSEECSAMEDSLERCLGLIESCYDSQSVWSCVPATIYCNNAQLAPYQRTGRNVYDIRKDCEGGNLCYPTLQDIDDYLNQDYVKEAVGAEVDHYESCNFDINRNFLFAGDWMKPYHTAVTDLLNQDLPILVYAGDKDFICNWLGNKAWTDVLPWKYDEEFASQKVRNWTASITDEVAGEVKSYKHFTYLRVFNGGHMVPFDVPENALSMVNEWIHGGFSL
For B1, the “effect of peptidase or protease” value in the assay with PA28 is “each inactivated PA28 without detectably altering its molecular weight on SDS-PAGE”.

B2: Carboxypeptidase B: Carboxypeptidase B from bovine pancreas (Sigma C7261) (protein, UniProt P00732 111-417, looked up)
Carboxypeptidase B: TTGHSYEKYNNWETIEAWTEQVASENPDLISRSAIGTTFLGNTIYLLKVGKPGSNKPAVFMDCGFHAREWISPAFCQWFVREAVRTYGREIHMTEFLDKLDFYVLPVVNIDGYIYTWTTNRMWRKTRSTRAGSSCTGTDLNRNFDAGWCSIGASNNPCSETYCGSAAESEKESKAVADFIRNHLSSIKAYLTIHSYSQMMLYPYSYDYKLPKNNVELNTLAKGAVKKLASLHGTTYTYGPGASTIYPASGGSDDWAYDQGIKYSFTFELRDKGRYGFVLPESQIQPTCEETMLAIKYVTSYVLEHLY
On to B2, for which the “effect of peptidase or protease” value with PA28 is “each inactivated PA28 without detectably altering its molecular weight on SDS-PAGE”.
